# How the values were obtained:
# [1] = test system: human ovarian A2780 cancer cells; test: SRB growth inhibition assay, A2780; assay type: cell-based; conditions: SRB; 24 h exposure, 72 h recovery; read-out: IC50 values for azopyridine complexes against A2780 ovarian cancer cells
# Procedure: The concentrations of the osmium complexes that inhibit 50% of the proliferation of human ovarian A2780 cancer cells were determined by sulforhodamine B test. A2780 cells were seeded in 96-well plate (Falcon) at 5000 cells/well, after the incubation for 48 h, The complexes were solubilised in DMSO (Sigma) to provide 10 mM stocks. The stocks were serially diluted by cell culture media to give concentrations four-fold than the final concentrations for the assay. The dilutions of complexes in cell culture media were added to the 96-well plate with cells in triplicates to achieve the final concentrations. The final DMSO concentration in each well was no more than 1% (v/v). The complexes were removed after 24 h. The cells were washed with Phosphate Buffered Saline once and cell culture media was added 150 μL/well. The cells were recovered for 72 h. The surviving cells were fixed by adding 150 μL/well of 50% (w/v) trichloroacetic acid and incubated for 1 h at 277 K (277 K). The plates were washed with tap water three times and dried under a flow of warm air, 0.4% sulforhodamine B (Sigma) solution 100 μL/well followed by washing with 1% acetic acid five times and dried under a flow of warm air. The dye was dissolved in 10 mM Tris buffer […] The absorbance of each well was obtained by the Multiskan Ascent plate reader (Labsystems) at 540 nm. The absorbance value of SRB in each well is directly proportional to the cell number. Then the absorbance can be plotted against concentration and the IC50 determined by using Origin software.
# The cytotoxicity studies were carried out as described previously above.
# [2] = test system: A2780/cis ovarian (cisplatin-resistant); test: MTT growth inhibition assay, A2780/cis; assay type: cell-based, human; conditions: 96 h
# Procedure: (§1) Tumor cell growth inhibition was assessed using the MTT assay.^13 2×10^3 cells were inoculated into a 96-well plate and incubated overnight at 37° C. in a humidified atmosphere containing 5% CO2. Complexes were solubilised in DMSO as above, and then diluted in complete cell culture medium to give a broad range of concentrations. Cisplatin was included in the screen as a comparator. Medium was removed from each well and replaced with complex or control solutions, and the plates then incubated for a further 96 hours. After 96 h culture medium was removed and 200 μL of 0.5 mg mL^−1 MTT solution (Sigma) in complete medium added to each well. Following further 4 h incubation, the solution was removed from each well and 150 μL of DMSO (Sigma) added to solubilise the formazan crystals resulting from MTT conversion. Absorbance values for the resulting solutions were read at 550 nm on a microplate reader and cell survival calculated as the absorbance of treated cells divided by the control. Results were expressed in terms of IC50 values (i.e. concentration of compound required to kill 50% of cells) and all experiments were performed in triplicate.
# (§2) The following human cancer cell lines were cultured in RPMI 1640 cell culture medium supplemented with 1 mM sodium pyruvate, 2 mM L-glutamine and 10% fetal bovine serum (all from Sigma): A549 non-small cell lung, HCT-116 colon, MCF-7 breast, PC-3 prostate (all from LGC Promochem, Teddington, UK), A2780/cis ovarian (cisplatin-resistant) and RT-112 bladder (both from ECACC, Salisbury, UK).
# [3] = test system: A549 non-small cell lung; test: MTT growth inhibition assay, A549; assay type: cell-based, human; conditions: 96 h
# Procedure: as §1, §2
# [4] = test system: MCF-7 breast; test: MTT growth inhibition assay, MCF-7; assay type: cell-based, human; conditions: 96 h
# Procedure: as §1, §2
# [5] = test system: PC-3 prostate; test: MTT growth inhibition assay, PC-3; assay type: cell-based, human; conditions: 96 h
# Procedure: as §1, §2
# [6] = test system: RT-112 bladder; test: MTT growth inhibition assay, RT-112; assay type: cell-based, human; conditions: MTT, 96 h
# Procedure: as §1, §2
# [7] = test system: human tumor 60-cell line panel; test: NCI/DTP human tumor 60-cell line panel screen; assay type: cell-based; conditions: NCI 60-cell line panel, MG-MID, 48 h
# Procedure: The cells were treated for 48 h at five concentrations ranging from 0.01 to 100 μM. Three endpoints were calculated: GI 50 (the concentration inhibits cell growth by 50%):
# TGI (the concentration inhibits cell growth by 100%)
# LC 50 (the concentration kills original cells by 50%)
# MG-MID (full-panel mean-graph midpoint).
# [8] = test system: Leukemia MOLT-4; test: NCI 60-cell line screen, MOLT-4; assay type: cell-based, human; conditions: Leukemia MOLT-4, 48 h
# Procedure: (§3) The cells were treated for 48 h at five concentrations ranging from 0.01 to 100 μM. Three endpoints were calculated: GI 50 (the concentration inhibits cell growth by 50%): […]
# [9] = test system: colon cancer OoLO 205; test: NCI 60-cell line screen, colon cancer line; assay type: cell-based, human; conditions: colon cancer OoLO 205, 48 h
# Procedure: as §3
# [10] = test system: tubulin; test: Tubulin polymerization assay; assay type: biochemical; conditions: Osmium Compounds at 10 μM; 37° C., 60 min
# Procedure: To follow the anticancer mechanism indicated by COMPARE, We have investigated whether osmium complexes can interacted directly with tubulin.
# A Cytoskeleton tubulin polymerization assay kit (catalog no BK004) was used in the tubulin polymerization study. Briefly, 10 μL of general tubulin buffer (80 mM PIPES, pH 6.9, 2 mM MgCl2, and 0.5 mM EGTA) containing osmium compound, colchicine or taxol was pipetted into the prewarmed 96 well microplate. Tubulin (defrosted to room temperature from −80° C. and then placed on ice before use) was diluted with tubulin polymerization buffer with 1 mM GTP to a final concentration of 4 mg mL^−1. Diluted tubulin (100 μL) was added into the wells containing osmium compound, colchicine or taxol. Diluted tubulin (100 μL) mixed with general tubulin buffer (10 μL) served as control. The absorbance at 340 nm was read immediately with a Tecan microplate reader.
# [11] = Stability and hydrolysis (1H NMR, MS, UV-vis); assay type: physicochemical; conditions: 310 K, 24 h, 95% deuterated phosphate buffer (10 mM)/5% MeOD-d4
substance,measurement,setting,value
[(η^6-p-cym)Os(Azpy-NMe2)I]PF6 [Complex 6],IC50,[1],200 nM
same,IC50,[2],< 300 nM
same,IC50,[3],< 300 nM
same,IC50,[4],79 nM
same,IC50,[5],600 nM
same,IC50,[6],< 300 nM
same,GI50,[7],280 nM
same,LC50,[7],6300 nM
same,TGI,[7],1170 nM
same,GI50,[8],< 50 nM
same,GI50,[9],< 50 nM
same,Inhibition of Tubulin Polimerziation,[10],28.6%
same,stability and hydrolysis in aqueous solution,[11],remained stable and did not hydrolyze

# Reference: US9598448B2, “Osmium (II) arene imino anti-cancer complexes” (University of Warwick, priority 2010, dated 2017)
